Data: patent publication US8871683B2, “Dicamba herbicide composition” (Nufarm Australia Limited, priority 2008, dated 2014)

Assay: Low temperature (cold storage) stability testing, CIPAC Method 39.3 (1999)
Type: physicochemical
Details: for cold temperature stability at 0° C.: 750 g/L Dicamba (based on acid equivalent); for cold storage / low temperature stability at 0° C.: Dicamba 800 g/L acid equivalent
Description: Compositions described in the Examples were examined by the CIPAC Method 39.3 (1999) the procedure of which is noted below.
Transfer 100±1.0 ml of the formulation to the tube and insert the stopper. Cool to 0±2° C. in the refrigerator (Note 2). If the sample contains a dissolved crystalline pesticide, remove the tube from the refrigerator after 24 hours, take off the stopper, add a small crystal of the pure or technical pesticide (Note 3) and replace the stopper. Replace the tube in the refrigerator and allow it to remain at 0±2° C. for a total period of 7 days (Note 4).
At the end of this time, note the volume and nature of any separated material. If the liquid phase is not homogeneous, note the volume of each layer. If there is any separated material, then allow the tube to reach room temperature over a period of 24 hours (Note 5), invert once and again note the volume and nature of any separated material. • Note 1 A domestic refrigerator is often unsuitable because the on/off cycle may cover a range larger than 4° C. • Note 2 Alternatively a graduated emulsion tube meeting BS 658 class B, type 1 (Crow Receiver) may be used. • Note 3 A crystal from the commercial manufacturing process is preferred. Alternatively a crystal separated from the formulation e.g. by distillation of the solvent may be used. • Note 4 Other temperature-storage period combinations may be specified. • Note 5 Room temperature being defined as 23±2° C. Note any temperature outside this range.
Low temperature stability testing was carried out in accordance with the Standard CIPAC Method 39.3 (1999) and the resulting percentage crystallisation is reported in Table 3.

SMILES | cold temperature stability at 0° C. | cold storage / low temperature stability at 0° C.
CNC.COc1c(Cl)ccc(Cl)c1C(=O)O [DMA salt] | not stable | Neither of the individual DMA or MMA salts were stable
CN.COc1c(Cl)ccc(Cl)c1C(=O)O [MMA salt] | not stable | Neither of the individual DMA or MMA salts were stable
